Assay results reported in PubChem BioAssay AID248 (DTP/NCI, 2004).
“And” between values parts separate entries of the source, which are not always exact repeats. Identical values can stand only once. Inconclusive results and toxic doses are left out. Peptide text beside a SMILES is read from it. * marks the point of attachment. Boc = CC(C)(C)OC(=O)*; Bn = c1ccc(C*)cc1

System: L1210 leukemia ip in BDF1 mice, survival T/C
Assay: NCI In Vivo Anticancer Drug Screen. Data for tumor model L1210 Leukemia (intraperitoneal) in B6D2F1 (BDF1) mice
Conditions: endpoint: mean survival time, higher = longer survival
Outline: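 Ratio derived from survival: compound-dosed mice over vehicle-dosed mice, all bearing a transplantable tumor.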

[1] = dose: 100.0 mg/kg/injection, schedule: Q01DX001 (ip), vehicle: saline
[2] = dose: 200.0 mg/kg/injection, schedule: Q01DX001 (ip), vehicle: saline
[3] = dose: 400.0 mg/kg/injection, schedule: Q01DX001 (ip), vehicle: saline
[4] = dose: 100.0 mg/kg/injection, schedule: Q04DX003 (ip), vehicle: saline with Tween-80
[5] = dose: 200.0 mg/kg/injection, schedule: Q04DX003 (ip), vehicle: saline with Tween-80
[6] = dose: 100.0 mg/kg/injection, schedule: Q01DX009 (ip), vehicle: Klucel (hydroxypropylcellulose) (HPC)
[7] = dose: 200.0 mg/kg/injection, schedule: Q01DX009 (ip), vehicle: Klucel (hydroxypropylcellulose) (HPC)
[8] = dose: 400.0 mg/kg/injection, schedule: Q01DX009 (ip), vehicle: Klucel (hydroxypropylcellulose) (HPC)
[9] = dose: 400.0 mg/kg/injection, schedule: Q04DX003 (ip), vehicle: saline with Tween-80
[10] = dose: 50.0 mg/kg/injection, schedule: Q04DX002 (ip), vehicle: Klucel (hydroxypropylcellulose) (HPC)
[11] = dose: 100.0 mg/kg/injection, schedule: Q04DX002 (ip), vehicle: Klucel (hydroxypropylcellulose) (HPC)
[12] = dose: 200.0 mg/kg/injection, schedule: Q04DX002 (ip), vehicle: Klucel (hydroxypropylcellulose) (HPC)
[13] = dose: 400.0 mg/kg/injection, schedule: Q01DX009 (ip), vehicle: saline
[14] = dose: 100.0 mg/kg/injection, schedule: Q04DX003 (ip), vehicle: Klucel (hydroxypropylcellulose) (HPC)
[15] = dose: 100.0 mg/kg/injection, schedule: Q04DX003 (ip), vehicle: saline
[16] = dose: 400.0 mg/kg/injection, schedule: Q04DX003 (ip), vehicle: saline
[17] = dose: 12.5 mg/kg/injection, schedule: Q01DX009 (ip), vehicle: saline
[18] = dose: 25.0 mg/kg/injection, schedule: Q01DX009 (ip), vehicle: saline
[19] = dose: 200.0 mg/kg/injection, schedule: Q04DX003 (ip), vehicle: saline

Structure (SMILES): CCN=C(N)c1ccc(NC(=O)Nc2ccc(NC(=O)Nc3ccc(C(N)=NCC)cc3)cc2)cc1
- T/C (dose: 0.31 mg/kg/injection, schedule: Q01DX Z (ip), vehicle: carboxymethylcellulose (CMC)): 98 % of control
- T/C (dose: 0.62 mg/kg/injection, schedule: Q01DX Z (ip), vehicle: carboxymethylcellulose (CMC)): 97 % of control
- T/C (dose: 1.25 mg/kg/injection, schedule: Q01DX Z (ip), vehicle: carboxymethylcellulose (CMC)): 90 % of control
- T/C (dose: 2.5 mg/kg/injection, schedule: Q01DX Z (ip), vehicle: carboxymethylcellulose (CMC)): 107 % of control

Structure (SMILES): COc1ncnc(=O)[nH]1
- T/C [1]: 97 % of control
- T/C [2]: 98 % of control
- T/C [3]: 97 % of control

Structure (SMILES): O=C(COc1ccc(Cl)cc1Cl)Nc1cccnc1
- T/C (dose: 100.0 mg/kg/injection, schedule: Q01DX001 (ip), vehicle: Klucel (hydroxypropylcellulose) (HPC)): 93 % of control
- T/C [4]: 94 % of control
- T/C (dose: 200.0 mg/kg/injection, schedule: Q01DX001 (ip), vehicle: Klucel (hydroxypropylcellulose) (HPC)): 89 % of control
- T/C [5]: 94 % of control
- T/C (dose: 400.0 mg/kg/injection, schedule: Q01DX001 (ip), vehicle: Klucel (hydroxypropylcellulose) (HPC)): 96 % of control

Structure (SMILES): CCCCOc1ccc(OC(=O)Nc2cccc(C(C)=O)c2)cc1
- T/C [6]: 108 % of control
- T/C [7]: 96 % of control
- T/C [8]: 96 % of control

Structure (SMILES): NCC(=O)NCCCC(=O)O
- T/C (dose: 18.75 mg/kg/injection, schedule: Q01DX001 (ip), vehicle: saline): 90 % of control
- T/C (dose: 37.5 mg/kg/injection, schedule: Q01DX001 (ip), vehicle: saline): 101 % of control
- T/C (dose: 75.0 mg/kg/injection, schedule: Q01DX001 (ip), vehicle: saline): 104 % of control

Structure (SMILES): CCOc1ccc(C(=O)OCCCl)cc1
- T/C [4]: 110 % of control
- T/C [5]: 109 % of control
- T/C [9]: 109 % of control

Structure (SMILES): NC(=S)N/N=C\c1c(Cl)[nH]c2ccc(/C=N/NC(N)=S)cc12
- T/C [10]: 97 % of control
- T/C [11]: 90 % of control
- T/C [12]: 94 % of control

Structure (SMILES): C/C=C/C=C/C(=O)NO
- T/C (dose: 50.0 mg/kg/injection, schedule: Q01DX009 (ip), vehicle: Klucel (hydroxypropylcellulose) (HPC)): 93 % of control
- T/C (dose: 62.0 mg/kg/injection, schedule: Q03HX024 (ip), vehicle: saline): 101 % of control
- T/C [6]: 102 % of control
- T/C (dose: 125.0 mg/kg/injection, schedule: Q03HX024 (ip), vehicle: saline): 94 % of control
- T/C (dose: 177.0 mg/kg/injection, schedule: Q01DX009 (ip), vehicle: carboxymethylcellulose (CMC)): 117 % of control
- T/C (dose: 177.0 mg/kg/injection, schedule: Q01DX009 (ip), vehicle: saline): 94 % of control
- T/C [7]: 104 % of control
- T/C (dose: 266.0 mg/kg/injection, schedule: Q01DX009 (ip), vehicle: saline): 117 % of control
- T/C [13]: 121 % of control
- T/C (dose: 600.0 mg/kg/injection, schedule: Q01DX009 (ip), vehicle: saline): 165 % of control

Structure (SMILES): COc1ccc(CC(=O)NNC(=O)C2(C(C)C)OC3(O)CCCCCN3C2=O)cc1OC (stereo unspecified)
- T/C (dose: 12.5 mg/kg/injection, schedule: Q04DX003 (ip), vehicle: saline with Tween-80): 101 % of control
- T/C (dose: 25.0 mg/kg/injection, schedule: Q04DX003 (ip), vehicle: saline with Tween-80): 92 % of control
- T/C (dose: 50.0 mg/kg/injection, schedule: Q04DX003 (ip), vehicle: saline with Tween-80): 101 % of control
- T/C [4]: 90 % of control

Structure (SMILES): COc1cc2c(c(OC)c1OC)-c1ccc(O)c(=O)cc1[C@@H](NC(C)=O)CC2
- T/C (dose: 75.0 mg/kg/injection, schedule: Q01DX001 (ip), vehicle: other): 90 % of control
- T/C (dose: 150.0 mg/kg/injection, schedule: Q01DX001 (ip), vehicle: other): 119 % of control

Structure (SMILES): C=CCc1ccc(OCCOCCNC2CC(C)CCC2C(C)C)c(OC)c1 (stereo unspecified)
- T/C [14]: 92 % of control

Structure (SMILES): Cc1cccc(CSc2nc(N)nc3ncn(C4CC(O)C(CO)O4)c23)n1 (stereo unspecified)
- T/C (dose: 100.0 mg/kg/injection, schedule: Q01DX005 (ip), vehicle: saline): 101 % of control
- T/C (dose: 200.0 mg/kg/injection, schedule: Q01DX005 (ip), vehicle: saline): 103 % of control

Structure (SMILES): CC(=O)Oc1ccccc1C(C)=O
- T/C [6]: 97 % of control
- T/C [14]: 96 % of control
- T/C [7]: 97 % of control
- T/C (dose: 200.0 mg/kg/injection, schedule: Q04DX003 (ip), vehicle: Klucel (hydroxypropylcellulose) (HPC)): 98 % of control
- T/C (dose: 400.0 mg/kg/injection, schedule: Q04DX003 (ip), vehicle: Klucel (hydroxypropylcellulose) (HPC)): 104 % of control

Structure (SMILES): CC(=O)OC1CC2(Cl)C(Cl)=C(Cl)C1(Cl)C2(Cl)Cl (stereo unspecified)
- T/C [1]: 100 % of control
- T/C [15]: 89 % of control
- T/C [2]: 98 % of control
- T/C [3]: 98 % of control
- T/C [16]: 103 % of control

Structure (SMILES): Cc1cc(C)[s+]s1
- T/C [17]: 94 % of control
- T/C [18]: 100 % of control
- T/C (dose: 50.0 mg/kg/injection, schedule: Q01DX009 (ip), vehicle: saline): 103 % of control and 91 % of control
- T/C [15]: 106 % of control
- T/C [19]: 97 % of control

Structure (SMILES): CC#CC1(O)CCC2C3CC(C)C4CC(=O)CCC4(C)C3CCC21C (stereo unspecified)
- T/C (dose: 146.0 mg/kg/injection, schedule: Q01DX Z (sc), vehicle: steriod suspending solution): 108 % of control
- T/C (dose: 222.0 mg/kg/injection, schedule: Q01DX Z (sc), vehicle: steriod suspending solution): 112 % of control
- T/C (dose: 333.0 mg/kg/injection, schedule: Q01DX Z (sc), vehicle: steriod suspending solution): 112 % of control
- T/C (dose: 500.0 mg/kg/injection, schedule: Q01DX Z (sc), vehicle: steriod suspending solution): 106 % of control

Structure (SMILES): CCCOP(=O)(CCl)OCCC
- T/C [15]: 101 % of control
- T/C [19]: 104 % of control
- T/C [16]: 101 % of control

Structure (SMILES): CC(C)c1cc(O)ccc1O
- T/C (dose: 100.0 mg/kg/injection, schedule: Q01DX001 (ip), vehicle: other): 102 % of control
- T/C (dose: 200.0 mg/kg/injection, schedule: Q01DX001 (ip), vehicle: other): 94 % of control

Structure (SMILES): Cc1cccc(Cl)c1NC(=O)Oc1ccccc1C(N)=O
- T/C [6]: 92 % of control
- T/C [11]: 95 % of control
- T/C [7]: 100 % of control
- T/C [12]: 100 % of control
- T/C [8]: 105 % of control
- T/C (dose: 400.0 mg/kg/injection, schedule: Q04DX002 (ip), vehicle: Klucel (hydroxypropylcellulose) (HPC)): 100 % of control

Structure (SMILES): N#CCC(N)=S
- T/C (dose: 25.0 mg/kg/injection, schedule: Q04DX002 (ip), vehicle: gum acacia): 120 % of control
- T/C (dose: 50.0 mg/kg/injection, schedule: Q04DX002 (ip), vehicle: gum acacia): 109 % of control

Structure (SMILES): CCCCCCCCCCC(=O)N1CCCCCC1
- T/C [10]: 100 % of control
- T/C [11]: 100 % of control
- T/C [12]: 95 % of control

Structure (SMILES): Nc1nc(CNc2ccc(Cl)cc2)nc(Nc2ccc(Cl)cc2)n1
- T/C [4]: 89 % of control
- T/C [5]: 95 % of control
- T/C [9]: 95 % of control

Structure (SMILES): Nc1cccc(S(=O)(=O)N(CCO)CCO)c1
- T/C [15]: 90 % of control
- T/C [19]: 95 % of control
- T/C [16]: 94 % of control

Structure (SMILES): CC(=O)OC(CC(=O)CC(O)(C(F)(F)F)C(F)(F)F)(C(F)(F)F)C(F)(F)F
- T/C (dose: 6.25 mg/kg/injection, schedule: Q01DX009 (ip), vehicle: saline): 94 % of control
- T/C [17]: 91 % of control
- T/C [18]: 88 % of control

Structure (SMILES): CC(C)(C)CCN1C(=O)c2ccccc2C1=O
- T/C [1]: 94 % of control
- T/C (dose: 100.0 mg/kg/injection, schedule: Q01DX009 (ip), vehicle: saline): 100 % of control
- T/C [2]: 92 % of control
- T/C (dose: 200.0 mg/kg/injection, schedule: Q01DX009 (ip), vehicle: saline): 97 % of control
- T/C [3]: 92 % of control
- T/C [13]: 97 % of control

Structure (SMILES): COC(=O)CNC(=O)C(Cc1ccc(OCc2ccccc2)cc1)NC(=O)C(CO)NC(=O)OC(C)(C)C (stereo not drawn) (Boc-Ser-Tyr(Bn)-Gly-OMe; configuration not given here)
- T/C (dose: 100.0 mg/kg/injection, schedule: Q01DX009 (ip), vehicle: saline with Tween-80): 102 % of control
- T/C (dose: 200.0 mg/kg/injection, schedule: Q01DX009 (ip), vehicle: saline with Tween-80): 98 % of control
- T/C (dose: 400.0 mg/kg/injection, schedule: Q01DX009 (ip), vehicle: saline with Tween-80): 88 % of control
